Experiment [1] has as its system CD31-positive vessel in FaDu tumor. Kind of experiment: Effect on CD31-positive vessel in the FaDu subcutaneous model (Test Example 9). Conditions: five days after administration. The format is in vivo, nude mice. As to the method: A human squamous cell carcinoma of the head and neck (SCCHN) cell line FaDu, which had been cultured in an RPMI-1640 medium containing 10% FBS, and penicillin and streptomycin, was adjusted to a concentration of 5×10^7 cells/mL with PBS to prepare a cell suspension. The cell suspension was inoculated in a volume of 100 μL into a subcutaneous part of a right flank of nude mice, 7 weeks of ages (CAnN.Cg-Foxnlnu/CrlCrlj, female, Charles River Laboratories Japan, Inc.). Ten days after cell inoculation, a test compound in saline with 100 μM of hydroxypropyl-β-cyclodextrin was intravenously administered at doses from ½ MTD to MTD. The experiment was conducted on groups each consisting of 3 mice. Five days after administration, tumor samples were collected and fixed with IHC Zinc Fixative (BD Pharmingen) at 4° C. for 24 hr. Paraffin-embedded tissues were sectioned ([…]), mounted on positively charged slides, and air-dried. Immunohistochemical staining of CD31 was conducted using Ventana autostainer model Discover XT (Roche Diagnostics) according to the manufacture's protocol. Sections were deparaffinized, conditioned and the antigens were retrieved with CC1 (Ventana Medical Systems). Slides were blocked with Blocker A and Blocker B (Endogenous biotin blocking kit, Roche Diagnostics). Rat anti-mouse IgG CD31 antibody (Dianova GmbH) was applied at 2 μg/mL. Sections were incubated with the antibody for 6 hr, followed by 32 minutes incubation with biotinylated anti-rat IgG antibody (Jackson ImmunoResearch Laboratories) at 2.2 μg/mL. The detection was performed with Streptavidin-HRP D for 16 min, followed by incubation with DAB D and DAB H2O2 D (DABMap kit, Ventana Medical Systems, Inc) for 8 min. Slides were counterstained with Hematoxylin II (Roche Diagnostics) for 16 min, followed by incubation with Bluing reagent for 4 min. Sections were dehydrated in graded ethanols, defatted in xylene replacement and covered with DPX (Merck KGaA).
Immunostained slides were scanned using Vectra 2 Automated Slide Imaging System (Perkin Elmer Inc.). The number of blood vessels in the whole tumor was quantified by counting the CD31-positive objects using in Form 2 software (PerkinElmer Inc.) Area of the tumor region was measured by assessing the hematoxylin-staining area using inform 2 software (PerkinElmer Inc.) The number of blood vessels was normalized by the area of the tumor region. An increase rate of the blood vessel number of the test compound-dosing group was calculated with the below formula, and shown in Table 9.

The test system of experiment [2] is human squamous cell carcinoma of the head and neck (SCCHN) cell line FaDu. The experiment is described as follows: FaDu growth inhibition assay. The format is cell-based. The settings on record: 3 days incubation, CellTiter-Glo. As to the method:
In this assay, the growth inhibitory activity of test compounds in a human squamous cell carcinoma of the head and neck (SCCHN) cell line FaDu was measured. FaDu cells were maintained in an RPMI-1640 (Wako Pure Chemical Industries, Ltd., 187-02021) medium containing 10% fetal bovine serum (FBS: Nichirei, 12D168), and penicillin and streptomycin in a 5% CO2 incubator (37° C.). To each well of a 96 well plate (Becton, Dickinson and Company, 353219), 75 μL of FaDu cell suspension adjusted to a concentration of 4×10^4 cells/mL with the culture medium was added, and the cells were incubated overnight in a 5% CO2 incubator (37° C.). On the next day, 25 μL of Compound (1) or Halichondrin B in three-fold dilution series suspended in the culture medium was added to each well, and the resultant was incubated for 3 days in a 5% CO2 incubator (37° C.). Then, cell viability was determined by CellTiter-Glo® Luminescent Cell Viability Assay (Promega) with EnVision 2103 Multilabel Reader (Perkin-Elmer, Wellesley, MA). Value of the wells containing cells without adding the test compounds was defined as 100% and the value of the wells containing no cells was defined as 0%. The concentration of the test compound necessary for inhibiting the cell growth by 50% (i.e., an IC50 value) was calculated, and shown in Table 1.
In general terms: Cellular ATP, detected with luciferase, serves as a proxy for viable cell number.

Experiment [3] deals with α-SMA positive-CAFs in FaDu tumor. The experiment is described as follows: Effect on α-SMA positive-CAFs in the FaDu subcutaneous model (Test Example 10). The format is in vivo, nude mice. The settings on record: two days after administration. As to the method: A human squamous cell carcinoma of the head and neck (SCCHN) cell line FaDu, which had been cultured in an RPMI-1640 medium containing 10% FBS, and penicillin and streptomycin, was adjusted to a concentration of 5×10^7 cells/mL with PBS to prepare a cell suspension. The cell suspension was inoculated in a volume of 100 μL into a subcutaneous part of a right flank of nude mice, 5 to 6 weeks of ages (CAnN.Cg-Foxnlnu/CrlCrlj, female, Charles River Laboratories Japan, Inc.). Ten days after cell inoculation, a test compound in saline with 100 μM of hydroxypropyl-β-cyclodextrin was intravenously administered at ½ MTD and MTD. The experiment was conducted on groups each consisting of 3 mice. Two days after administration, tumor samples were collected and fixed with IHC Zinc Fixative (BD Pharmingen) at 4° C. for 24 hr. Paraffin-embedded tissues were sectioned ([…]), mounted on positively charged slides, and air-dried for 6 hr. Immunohistochemical staining of α-SMA was conducted using Ventana autostainer model Discover XT (Roche Diagnostics). Sections were deparaffinized, conditioned and the antigens were retrieved with proprietary buffers, EZPrep and CC1 (Ventana Medical Systems). Mouse anti-α-SMA monoclonal antibody conjugated with alkaline phosphatase (clone 1A4, Sigma) was applied at 5 μg/mL. Sections were incubated with the antibody for 6 hr. The detection was performed with RedMap kit (Ventana Medical Systems, Inc). Sections were dehydrated in graded ethanols, defatted in xylene replacement and covered with DPX (Merck KGaA). The serial tumor slices were deparaffinized and stained with Mayer's hematoxylin (Muto Pure Chemicals) for 1 min. Sections were dehydrated in graded ethanols, defatted in xylene replacement and covered with DPX (Merck KGaA).
Immunostained slides were scanned using Vectra 2 Automated Slide Imaging System (Perkin Elmer Inc.). The area of the α-SMA-positive region in the whole tumor was quantified by counting the α-SMA-positive objects using inForm 2 software (PerkinElmer Inc.). Area of the tumor region was measured by assessing the hematoxylin-staining area using inForm 2 software (PerkinElmer Inc.). The area of the α-SMA positive region was normalized by the area of the tumor region. A suppression rate of the α-SMA positive area of the test compound-dosing group was calculated with the below formula, and shown in Table 10.

[4] abbreviates: MTD i.v. (Halichondrin B 0.05 mg/kg, Compound (1) 0.20 mg/kg).
Where [5] appears, read: ½ MTD i.v. (Halichondrin B 0.025 mg/kg, Compound (1) 0.10 mg/kg).

The text below walks through data of patent US20240309014A1, “MACROCYCLIC COMPOUNDS AND USES THEREOF” (President and Fellows of Harvard College, priority 2017, published 2024).

In general, IC50 refers to the concentration that inhibits the measured activity by half. `C=C1C[C@@H]2CC[C@@]34C[C@H]5O[C@H]6[C@@H](O3)[C@H]3O[C@H](CC[C@@H]3O[C@H]6C5O4)CC(=O)O[C@@H]3[C@@H](C)[C@@H]4O[C@@H]5C[C@]6(C[C@@H]7O[C@]8(C[C@H](C)[C@@H]9O[C@H](CN)[C@H](O)C[C@@H]9O8)C[C@H](C)[C@@H]7O6)O[C@@H]5C[C@@H]4O[C@H]3C[C@H]3O[C@@H](CC[C@@H]1O2)C[C@@H](C)C3=C` (stereo in doubt) [Compound (1)]: the “Increase rate of blood vessel number (%)” value in experiment [1] (setting [4]) is recorded as 154%; in experiment [1] (setting [5]) it was 69%. The compound also came in with a 50% inhibitory concentration (IC50) in experiment [2] (Homo sapiens, FaDu, 72 h) of 0.0714 nM. Moreover, the results for the “Suppression rate of α-SMA positive area (%)” value in experiment [3] (setting [4]) and in experiment [3] (setting [5]) were 28% and 21%, respectively.
For the compound `C=C1C[C@@H]2CC[C@@]34C[C@H]5O[C@H]6[C@@H](O3)[C@H]3O[C@H](CC[C@@H]3O[C@H]6[C@H]5O4)CC(=O)O[C@@H]3[C@@H](C)[C@@H]4O[C@@H]5C[C@]6(C[C@@H]7O[C@]8(C[C@H](C)[C@@H]9O[C@H]([C@@H](O)C[C@@H](O)CO)C[C@@H]9O8)C[C@H](C)[C@@H]7O6)O[C@@H]5C[C@@H]4O[C@H]3C[C@H]3O[C@@H](CC[C@@H]1O2)C[C@@H](C)C3=C` [Halichondrin B, reference compound], the “Increase rate of blood vessel number (%)” value in experiment [1] (setting [4]) is recorded as 39%; in experiment [1] (setting [5]) it was 31%. Also, inhibition in experiment [2] was half-maximal at 0.124 nM (IC50). For the same compound, the “Suppression rate of α-SMA positive area (%)” value in experiment [3] (setting [4]) is given as 3%; in experiment [3] (setting [5]), 7%.
